# Test results published in patent US4298594A, “Xenobiotic delivery vehicles, method of forming them and method of using them” (Arthur D. Little, Inc., priority 1980, dated 1981).
# “Also recorded” adds a separate entry of the source.
# What was measured:
# [1] = cited from earlier work
# P388 leukemia system = conditions: mouse; cited from earlier work
# L1210 leukemia system = conditions: mouse; cited from earlier work
# [2] = binding of adriamycin to microreservoirs; type: physicochemical
# Description: With this 2 mg (3.45 μmoles) of adriamycin was used. In the five samples, the amount of phosphatidic acid in the total lipid constituent was varied from zero to 25%. […] The aqueous suspensions were each sonicated at 52° C. for 15 minutes. Each sample was passed down through a 2.5×50 cm Sephadex G-50 gel column to separate free and bound adriamycin.
# 2875 μmoles of purified soybean phosphatidyl chloine (specific activity 2296 ^3 H dpm/μmole) 720 μmoles of soybean phosphatidic acid and 720 μmoles of cholesteryl oleate (specific activity of 3638 ^14 C dpm/μmole) were dissolved in choloroform and taken to dryness by pumping overnight against a vacuum. The resulting solid material was hydrated with 20 ml of 10 mM of trihydroxymethylamine (pH 9.1) and the liquid was sonicated at 52° C. under a nitrogen atmosphere for 15 minutes. The pH of the solution was lowered to 7.2 and then it was centrifuged for one hour at 100,000 g. 34.9 mg of adriamycin was added to the clear supernatant and it was then allowed to incubate for 30 minutes at room temperature. After this incubation, the ionic strength of the solution was increased to 0.154 M NaCl; and it was passed down a 4.3×37 cm G-50 Sephadex G-50 gel column using 0.154 M NaCl and 10 mM trihydroxymethylamine as the eluting solvent.
# normal mice = assay: toxicity of adriamycin in normal mice, survival; type: in vivo; conditions: 4 mg/kg ip daily for five days, six mice; listed as free adriamycin
# Description: Two dosages levels of the drug were chosen--4 mg/kg and 2 mg/kg. In each case, six normal mice received the injections each day for five days and then they were observed thereafter to determine the number of survivors. The results are plotted in FIG. 16.
# L1210 leukemic cells = assay: chemotherapy of L1210 leukemic mice with adriamycin, survival; conditions: 4 mg/kg ip, days 1 through 5; day 24; listed as free adriamycin
# Description: 72 normal mice were each innoculated with 10^6 L1210 leukemic cells by intraperitoneal injection on day zero. […] The drug in all cases was also given by intraperitoneal injection and the dosages were repeated daily on days 1 through 5. The dosage levels chosen were 4 mg/kg, 2 mg/kg, 1 mg/kg and 0.5 mg/kg.
# [3] = in vitro stability of microreservoirs and liposomes (optical density ratio A400/A600, thin layer chromatograms); type: physicochemical; conditions: after sonication and centrifugation
# Description: Both of the suspensions were then spun at 100,000 g for one hour to remove any undispersed lipid.
# Aliquots of 4 ml of each sample were then placed into stoppered curvettes and the samples were incubated at 37° C. At various points in time optical densities of the two solutions at 400 nm and 600 nm were determined. […] Since both structures initially had essentially the same molecular size, the ratio of A400/A600 is an indication of any increase in the particle size due to the breakdown of the structural organization of the liposome.
# [4] = plasma kinetics of daunomycin in rats, intravenous
# Description: A control sample of free daunomycin at the same concentration and in the same buffer was also prepared.
# 0.5 ml of blood was taken at various time points from each rat. The plasma was separated from the blood samples and assayed for daunomycin fusing fluorescence. The data thus obtained are plotted in FIG. 10 as a function of time after injection.
# P388 tumor cells = conditions: 4 mg/kg ip daily for 5 days
# Description: A number of mice were injected intraperitoneally with 1×10^6 P388 tumor cells. […] One group of mice, used as a control, received no drug in any form. Five mice were used for each protocol and two different dosage levels, 4 mg/kg and 2 mg/kg, were used.
# [5] = within two minutes after administration; cited from earlier work
# [6] = in vivo; cited from earlier work
# [7] = affinity for and efflux of estradiol undecanoate from vesicular and nonvesicular microreservoirs; type: physicochemical
# Description: The resulting liquid was sonicated at 40° C. for 20 minutes under a nitrogen atmosphere and passed down a Sepharose 4B Column. […] The material in the void volume of the column consisted of the nonvesicular form, whereas the material in the internal volume consisted of the vesicular form.
# [8] = plasma kinetics of imidocarb in rats, tail vein injection; type: in vivo; conditions: 24 hours (FIG. 24)
# Description: Plasma samples were taken at various time points and the amount of imidocarb in these samples was determined by measurements of their radio-activity.
# [9] = tissue distribution of free imidocarb and microreservoir-borne imidocarb; type: in vivo, rats; conditions: 4 hours after injection
# From the text: Various tissues, such as muscle, spleen, liver and kidney, were taken from the animals. These tissues were combusted in a Searle combustion apparatus and the resulting ^14 CO2 was collected and counted for radioactivity.
smiles,measurement,setting,value
"CCCCC(=O)OCC(=O)C1(O)Cc2c(O)c3c(c(O)c2C(OC2CC(NC(=O)C(F)(F)F)C(O)C(C)O2)C1)C(=O)c1c(OC)cccc1C3=O (stereo not drawn) [AD 32, N-Trifluoroacetyladriamycin-14-Valerate]",solubility in aqueous buffer / water,[1],totally insoluble in an aqueous buffer
same,antitumor activity,P388 leukemia system,significantly greater antitumor activity than adriamycin or daunomycin
same,antitumor activity,L1210 leukemia system,significantly greater antitumor activity than adriamycin or daunomycin
COc1cccc2c1C(=O)c1c(O)c3c(c(O)c1C2=O)C[C@@](O)(C(=O)CO)C[C@@H]3O[C@H]1C[C@H](N)[C@H](O)[C@H](C)O1 [adriamycin],binding of adriamycin to the microreservoirs relative to daunomycin,[2],"does not bind as strongly to the microreservoirs as does, for example, daunomycin"
same,bound adriamycin vs amount of phosphatidic acid,"[2]; 80 μmoles total phospholipid, 20 μmoles cholesteryl oleate, 2 mg adriamycin, pH 7.2",increases with increasing amounts of phosphatidic acid
same,phosphatidic acid content up to which bound adriamycin increases before levelling off,[2]; relative to total lipids,about 25 mole %
same,toxicity (survival at 30 days),normal mice,highly toxic; also recorded: survival of only one mouse
same,solubility in aqueous buffer / water,[1],water soluble
same,therapeutic effect / survivors,L1210 leukemic cells,some therapeutic effect for a short period of time; also recorded: all of the control mice and those receiving the free adriamycin had succumbed to leukemia and/or the toxic effect of the drug
COc1cccc2c1C(=O)c1c(O)c3c(c(O)c1C2=O)C[C@@](O)(C(C)=O)C[C@@H]3O[C@H]1C[C@H](N)[C@H](O)[C@H](C)O1 [daunomycin],degradation by thin layer chromatograms of the centrifugates,[3],no evidence of degradation
same,presence in the bloodstream after 3 3/4 hours,"[4]; printed ""33/4 hours"", 4 mg/kg iv",virtually absent from the bloodstream
same,concentration at 0.25 h,"[4]; rat, in vivo, iv, 4 mg/kg",~400 ng/mL
same,concentration at 1 h,"[4]; rat, in vivo, iv, 10 mg/kg",~500 ng/mL
same,concentration at 3 h,"[4]; rat, in vivo, iv, 10 mg/kg",~300 ng/mL
same,concentration at 6 h,"[4]; rat, in vivo, iv, 10 mg/kg",~140 ng/mL
same,chemotherapeutic effect / toxicity (survivors),P388 tumor cells,demonstrated a toxicity measurably greater than the tumor cells
same,fraction left to reach the target tissue,[5],~5%
same,fraction that has left the bloodstream within two minutes,[5],about 95%
same,toxicity,[6],"known to be toxic, particularly since it tends to concentrate in the heart tissues"
CCCCCCCCCCC(=O)O[C@H]1CC[C@H]2[C@@H]3CCc4cc(O)ccc4[C@H]3CC[C@]12C [estradiol undecanoate],efflux / retention of estradiol undecanoate,[7]; incubated with unsonicated egg phosphatidyl choline dispersion,remained associated with both forms of the microreservoirs
same,affinity for vesicular vs nonvesicular microreservoirs,[7]; ratio of estradiol undecanoate to cholesteryl oleate,higher affinity for the vesicular form of the microreservoirs than for the nonvesicular form
same,solubility in aqueous buffer / water,[1],essentially insoluble in water
O=C(Nc1cccc(C2=NCCN2)c1)Nc1cccc(C2=NCCN2)c1 [imidocarb],imidocarb in the bloodstream after 24 hours,[8],virtually none
same,"tissue distribution, Kidney",[9]; kidney,"40,194 dpm/gram of tissue"
same,"tissue distribution, Liver",[9]; liver,"27,059 dpm/gram of tissue"
same,"tissue distribution, Muscle",[9]; muscle,"3,985 dpm/gram of tissue"
same,"tissue distribution, Spleen",[9]; spleen,"9,498 dpm/gram of tissue"
